Laboratory results as given in patent US20100136137A1, “THERAPEUTIC COMBINATION OF A PANHER/VEGFR2 KINASE INHIBITOR AND A PLATINUM COMPOUND” (Bristol-Meyers Squibb Company, priority 2006, published 2010).

Tests used:
Format in all cases: cell-based
[1] = tested on: NSCLC cell lines; assay: Anti-proliferative/pro-apoptotic effects in NSCLC cell lines with different EGFR and p53 mutation status
Procedure: (§1) Non-Small Cell Lung Cancer cell lines with different EGFR and p53 mutation status were used. Variable doses of Compound I or cisplatin were used to induce death or proliferative death of the cells. A549 cells were transfected with siRNAs, and transfected cells were cultured for 48 hours prior to the administration of the drugs to attain the maximal down-regulation of the target proteins.

[2] = tested on: A549 cells; assay: siRNA knockdown of apoptosis pathway components in A549 cells, Compound I induced cell death
Procedure: as §1

[3] = tested on: NSCLC cell lines; assay: Apoptosis-associated changes by DiOC63 (Δψm) and propidium iodide (viability) staining
Excerpt: The fluorochromes, 3,3′-dihexyloxacarbocyanine iodide (DiOC63) and propidium iodide (PI) were employed to determine different apoptosis-associated changes. DiOC63 was used for the loss of mitochondrial transmembrane potential (Δψm) and PI was used for the loss of viability.

## COc1cccc(Nc2ncnn3ccc(CN4CC[C@@H](N)[C@H](O)C4)c23)c1 [Compound I, 4-Amino-1-[[4-[(3-methoxyphenyl)amino]pyrrolo [2,1-f][1,2,4]triazin-5-yl]methyl]-(3R,4R)-3-piperidinol]
[1]; NCI-H1975, NCI-H1650, NCIH1299, A549
  order of sensitivity of cell lines: NCI-H1975>>NCI-H1650=NCIH1299>A549
[1]; all NSCLC cell lines tested, including wild-type EGFR and T790M mutant
  anti-proliferative/pro-apoptotic effects: induced anti-proliferative/pro-apoptotic effects in all NSCLC cell lines tested
[2]; 24 and 48 hours
  effect of caspase-2 down-regulation on Compound I induced cell-death: limited protection against Compound I induced cell-death at 24 hours, but not at 48 hours
[2]; both 24 and 48 hours
  effect of Bcl-2 down-regulation, alone or in combination with Bcl-XL, on the effect of Compound I: strongly sensitized A549 cells
[3]; DiOC63 staining
  dissipation of Δψm (marker of early apoptosis): induced dissipation of Δψm
[3]; propidium iodide staining
  incorporation of PI (marker of late apoptosis, loss of viability): incorporation of PI
[3]; with z-VAD.fmk
  effect of pan-caspase inhibitor z-VAD.fmk on the loss of viability: no effect
  effect of pan-caspase inhibitor z-VAD.fmk on the reduction of the Δψm: only a minor protective effect
